In brackets after ≈: the same amount, converted by molar mass. Bridge positions count the residues as written; N and C are the ends. Square brackets hold non-standard residues; d marks the D form. Peptide text beside a SMILES is read from it.
Assays:
P. aeruginosa ATCC 27853 = format: cell-based, Pseudomonas aeruginosa
Procedure, shortened: (§1)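 MICs were determined by broth microdilution, with bacteria at a final 1 × 10^6 CFU/mL and peptides tested from 100 to 0.78 μM.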

S. aureus ATCC 25923 = format: cell-based, Staphylococcus aureus
Procedure, shortened: as §1

A. baumannii ATCC 19606 = format: cell-based, Acinetobacter baumannii
Procedure, shortened: as §1

E. coli ATCC 25922 = format: cell-based, Escherichia coli
Procedure, shortened: as §1

[1] = CD spectroscopy, secondary structure content (DichroWeb); format: physicochemical; details: for helix-1 (regular α-helix) / helix-2 (distorted α-helix) / random / β-strand-1 (regular β-strand) / β-strand-2 (distorted β-strand) / β-turn: peptide 50 μM, 25 °C
Experimental: The secondary structures of the linear peptide 9 and its stapled analogues 12, 17, and 24–26 were explored by circular dichroism (CD). CD spectroscopy studies were performed in water, and SDS or DPC micelles (20 mM) were used as mimics of the bacterial or mammalian membranes, respectively.[60]
The secondary structure content was predicted based on the CD spectra from 190 to 260 nm using the online server for protein secondary structure analyses, DichroWeb.[61] […] The hydrocarbon-bridged peptide 25 was slightly helical and structured in water, with weak ellipticity at 220 nm. Peptide 25 contains ∼13% regular helix and ∼10% distorted helix, according to the DichroWeb prediction.
All spectra were measured in the 260–190 nm spectral range, 1 nm bandwidth, 4 accumulations, and 100 nm/min scanning speed.[60] Each peptide was dissolved in water to prepare a 1 mM peptide stock solution. The CD spectra were performed in water, in SDS (20 mM) and in DPC (20 mM) using a peptide concentration of 50 μM. The secondary structure content of the peptides was predicted using the online server for protein secondary structure analyses DichroWeb.[61] Input and output units and the wavelength step were θ (mdeg) and 1.0 nm, respectively. The algorithm used was CONTIN-LL,[83] and reference database was set-7. When we have NRMSD > 0.100, we used the CDSSTR method.[83]

[2] = CD in SUVs, ratio of ellipticities at 222 and 208 nm; format: physicochemical; details: peptide 8 μM, lipid 100 μM, phosphate buffer 5 mM pH 7.4, 25 °C, >1.0 indicates oligomeric helices
Excerpt: TEXT PRINTED IN THE PICTURE: (c) 9: DOPG/CL mimicking Gram-positive membrane: θ222/ θ208: 1.7 | (c) 12: DOPG/CL mimicking Gram-positive membrane: θ222/ θ208: 2.6 | (c) 17: DOPG/CL mimicking Gram-positive membrane: θ222/ θ208: 1.9 | (f) 9: DOPE/DOPG/CL mimicking Gram-negative membrane: θ222/ θ208: 1.8 | (f) 12: DOPE/DOPG/CL mimicking Gram-negative membrane: θ222/ θ208: 2.1 | (f) 17: DOPE/DOPG/CL mimicking Gram-negative membrane: θ222/ θ208: 1.7
The ratio of the ellipticities at 222 and 208 nm was calculated to discriminate between monomeric and oligomeric states of helices.[64] As observed in our CD spectra, the ratio θ222/θ208 is always greater than 1.0 in both membranes, indicating an α-helical conformation in its oligomeric state (Figure 4c,f).
SUVs were prepared as reported: lipids (Gram-positive, DOPG/CL, 58/42 ratio in moles; Gram-negative DOPG/DOPE/CL, 63/23/12 ratio in moles) were dissolved in chloroform and an identical volume of peptide solution dissolved in TFE was added.[76] Then, the samples were vortexed and lyophilized overnight. CD spectra were recorded at a peptide concentration of 8 μM and at a lipid final concentration of 100 μM. […] CD spectra were recorded at 25 °C on a Jasco J-715 spectropolarimeter in a 1 cm quartz cell using three consecutive scans from 260 to 190 nm, 3 nm bandwidth, a time constant of 16 s, and a scan rate of 10 nm/min.

[3] = test system: S. epidermidis ATCC 12228; format: cell-based, Staphylococcus epidermidis
Procedure, shortened: as §1

[4] = test system: S. aureus ATCC 43300, a methicillin-resistant strain (MRSA); format: cell-based, Staphylococcus aureus
Experimental: Thus, 12 was further tested against S. aureus ATCC 43300, a methicillin-resistant strain (MRSA), and compared with the linear precursor 9. […] No growth was observed after 24 h. Peptide 9 was bactericidal as well, by killing MRSA within 10 min, but at a higher concentration (25 μM).
The bacterial strains used in the antimicrobial assays were the Gram-negative E. coli ATCC 25922, P. aeruginosa ATCC 27853, A. baumannii ATCC 19606, the Gram-positive S. aureus ATCC 25923, S. epidermidis ATCC 12228, and B. megaterium Bm11. Methicillin-resistant S. aureus (MRSA) ATCC 43300 was obtained from Culture Collection Center of School of Basic Medical Sciences of Lanzhou University (China).
The determination of MICs was conducted as previously reported.[61] Aliquots of 50 μL of bacterial culture appropriately diluted were added to each well of a 96-well plate to reach a final cell density of 1 × 10^6 CFU/mL and a final peptide concentration ranging from 100 to 0.78 μM (final volume 100 μL).

[5] = CD in DPC micelles (20 mM), DichroWeb
[6] = CD in SDS micelles (20 mM), DichroWeb
[7] = CD in water, DichroWeb (CONTIN-LL, set-7; CDSSTR if NRMSD > 0.100)

## CC[C@H](C)[C@H](NC(=O)[C@H](CCCNC(=N)N)NC(=O)[C@@H]1CCCCn2cc(nn2)C[C@H](NC(=O)[C@H](Cc2ccccc2)NC(=O)[C@H](Cc2c[nH]c3ccccc23)NC(=O)[C@@H]2CCCN2C(=O)[C@@H](NC(=O)[C@@H](N)Cc2ccccc2)C(C)C)C(=O)N[C@@H](CCCCN)C(=O)N[C@@H](Cc2ccccc2)C(=O)NC(CC(C)C)C(=O)N1)C(=O)N[C@@H](CC(C)C)C(N)=O (stereo in doubt) [compound 17]
P. aeruginosa ATCC 27853
  MIC P. aeruginosa ATCC 27853: >100 µM
S. aureus ATCC 25923
  MIC S. aureus ATCC 25923: 3.12 µM (≈ 5.35 µg/mL)
A. baumannii ATCC 19606
  MIC A. baumannii ATCC 19606: 25 µM (≈ 42.9 µg/mL)
E. coli ATCC 25922
  MIC E. coli ATCC 25922: >100 µM
[1]; [5]
  helix-1 (regular α-helix): 38%
  helix-2 (distorted α-helix): 18%
  random: 19%
  β-strand-1 (regular β-strand): 9%
  β-strand-2 (distorted β-strand): 7%
  β-turn: 10%
[1]; [6]
  helix-1 (regular α-helix): 32%
  helix-2 (distorted α-helix): 16%
  random: 16%
  β-strand-1 (regular β-strand): 13%
  β-strand-2 (distorted β-strand): 7%
  β-turn: 15%
[1]; CD in water, DichroWeb
  helix-2 (distorted α-helix): 4%
  random: 49%
  β-strand-1 (regular β-strand): 19%
  β-strand-2 (distorted β-strand): 9%
  β-turn: 16%
[1]; [7]
  helix-1 (regular α-helix): 2%
[2]; CD in DOPE/DOPG/CL SUVs
  θ222/θ208: 1.7
[2]; CD in DOPG/CL SUVs
  θ222/θ208: 1.9
[3]
  MIC S. epidermidis ATCC 12228: 1.56 µM (≈ 2.67 µg/mL)

## CC[C@H](C)[C@H](NC(=O)[C@H](CCCNC(=N)N)NC(=O)[C@@H]1CCC(=O)NCCCC[C@H](NC(=O)[C@H](Cc2ccccc2)NC(=O)[C@H](Cc2c[nH]c3ccccc23)NC(=O)[C@@H]2CCCN2C(=O)[C@@H](NC(=O)[C@@H](N)Cc2ccccc2)C(C)C)C(=O)N[C@@H](CCCCN)C(=O)N[C@@H](Cc2ccccc2)C(=O)N[C@H](CC(C)C)C(=O)N1)C(=O)N[C@@H](CC(C)C)C(N)=O [compound 12] (H-FVPWFKKF[dL]ERIL-NH2; lactam 6-10)
P. aeruginosa ATCC 27853
  MIC P. aeruginosa ATCC 27853: 100 µM (≈ 170 µg/mL)
S. aureus ATCC 25923
  MIC S. aureus ATCC 25923: 3.12 µM (≈ 5.32 µg/mL)
A. baumannii ATCC 19606
  MIC A. baumannii ATCC 19606: 3.12 µM (≈ 5.32 µg/mL)
[4]
  MIC S. aureus ATCC 43300 (MRSA): 12.5 µM (≈ 21.3 µg/mL)
E. coli ATCC 25922
  MIC E. coli ATCC 25922: 25 µM (≈ 42.6 µg/mL)
[1]; [5]
  helix-1 (regular α-helix): 54%
  helix-2 (distorted α-helix): 21%
  random: 13%
  β-strand-1 (regular β-strand): 1%
  β-strand-2 (distorted β-strand): 4%
  β-turn: 7%
[1]; CD in SDS micelles (20 mM), DichroWeb, regular plus distorted helix
  helix percentage (total) in SDS solution: about 80%
[1]; [6]
  helix-1 (regular α-helix): 58%
  helix-2 (distorted α-helix): 24%
  random: 5%
  β-strand-1 (regular β-strand): 0%
  β-strand-2 (distorted β-strand): 3%
  β-turn: 10%
[1]; CD in water, DichroWeb
  helix-2 (distorted α-helix): 2%
  random: 55%
  β-strand-1 (regular β-strand): 18%
  β-strand-2 (distorted β-strand): 8%
  β-turn: 15%
[1]; [7]
  helix-1 (regular α-helix): 0%
[3]
  MIC S. epidermidis ATCC 12228: 3.12 µM (≈ 5.32 µg/mL)

From paper PMC8389922, “First-in-Class Cyclic Temporin L Analogue: Design, Synthesis, and Antimicrobial Assessment” (Journal of Medicinal Chemistry, 2021)
